The values below come from ChEMBL document CHEMBL4017463, “Practical application of 3-substituted-2,6-difluoropyridines in drug discovery: Facile synthesis of novel protein kinase C theta inhibitors” (Bioorg Med Chem Lett, 2017).

For the experiment, the target named is Protein kinase C theta type (Homo sapiens, UniProt Q04759). Nature of the experiment: Inhibition of N-terminal FLAG-tagged PKCtheta (unknown origin) expressed in baculovirus expression system using fluorescein-PKC as substrate preincubated for 5 mins followed by substrate addition measured after 60 mins in presence of ATP by Lathascreen TR-FRET assay.
Protein kinase C theta type, sequence (Q04759 whole entry): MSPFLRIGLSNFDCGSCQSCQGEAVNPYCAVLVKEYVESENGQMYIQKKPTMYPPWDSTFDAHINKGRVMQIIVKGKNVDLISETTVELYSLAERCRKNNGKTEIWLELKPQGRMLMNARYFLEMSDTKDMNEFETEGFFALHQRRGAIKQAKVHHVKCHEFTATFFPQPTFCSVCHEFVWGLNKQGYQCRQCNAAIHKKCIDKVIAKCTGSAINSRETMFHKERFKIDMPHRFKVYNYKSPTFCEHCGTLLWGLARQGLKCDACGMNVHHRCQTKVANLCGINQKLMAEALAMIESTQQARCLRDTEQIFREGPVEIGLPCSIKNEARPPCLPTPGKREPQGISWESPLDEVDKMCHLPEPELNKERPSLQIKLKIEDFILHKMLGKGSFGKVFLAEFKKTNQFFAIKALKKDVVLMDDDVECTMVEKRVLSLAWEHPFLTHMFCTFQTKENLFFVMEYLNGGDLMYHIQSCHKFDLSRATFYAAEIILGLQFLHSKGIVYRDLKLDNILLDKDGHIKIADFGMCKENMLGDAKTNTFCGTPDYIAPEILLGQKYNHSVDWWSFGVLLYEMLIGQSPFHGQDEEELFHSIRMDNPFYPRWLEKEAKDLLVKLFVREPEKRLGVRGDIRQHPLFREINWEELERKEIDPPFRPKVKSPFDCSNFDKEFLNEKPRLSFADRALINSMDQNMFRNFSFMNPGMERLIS
As for `O=c1[nH]c2ncccc2n1-c1nc(N2CCCNCC2)ccc1F`, the IC50 was 100 nM. For `O=c1[nH]c2ncccc2n1-c1nc(N2CCCNCC2)ccc1Cl`, the IC50 is 18 nM. Take `CCOc1ccnc2[nH]c(=O)n(-c3nc(N4CCCNCC4)ccc3Cl)c12`: the IC50 is 0.086 nM. `O=c1[nH]c2ncccc2n1-c1nc(N2CCCC(C(O)C3CC3)C2)ccc1F` (stereo unspecified): the IC50 was over 1000 nM. On to `CN1CCCCOc2ccnc3[nH]c(=O)n(c23)-c2nc1ccc2Cl`, for which the IC50 is 0.87 nM. As for `CN1CCCOc2ccnc3[nH]c(=O)n(c23)-c2nc1ccc2Cl`, the IC50 was found to be 6.7 nM. For the compound `O=c1[nH]c2nccc3c2n1-c1nc(ccc1Cl)OCCCCO3`, the IC50 is 14 nM. On to `CC(C)CC1CCCN1c1ccc(F)c(-n2c(=O)[nH]c3ncccc32)n1` (racemic), for which the IC50 came to 250 nM.

Take `CC(C)(C)OC(=O)N1CCN(c2ccc([N+](=O)[O-])c(-n3c(=O)[nH]c4ncccc43)n2)C(c2ccccc2)C1` (racemic): the IC50 amounted to 0.18 nM. Regarding `N#Cc1ccc(N2CCNCC2c2ccccc2)nc1-n1c(=O)[nH]c2ncccc21` (racemic), the IC50 worked out at 6.3 nM. The same measure for `COc1ccnc2[nH]c(=O)n(-c3nc(N4CCNC(c5ccccc5)C4)ccc3Cl)c12` (racemic): 33 nM.
